Measurements from US8133685B2, “AMPK modulation as a method of regulating stem cell and cancer stem cell proliferation, self-renewal and differentiation” (Washington University, priority 2008, dated 2012).

Columns and labels:
[1] = system: Neural Stem and Progenitor cells (NPCs); test: NPC proliferation: count of trypan blue negative (live) cells after 48 hours of growth; assay type: cell-based, mouse; conditions: E12.5 forebrain wildtype NPCs, vs DMSO, p<0.001
Procedure: FIG. 26. […] Embryonic day 12.5 forebrain wildtype NPCs were cultured for 4 days and seeded as single cells in presence of DMSO (control), or the AMPK inhibitors Compound C (10 μM) and Adenine 9-β-D-arabinofuranoside (Ara A 1 mM). Following 48 hours of growth in medium supplemented with EGF ([…]) and bFGF ([…]), neurospheres were trypsinized and trypan blue negative (live) cells were counted on a hemocytometer. * p<0.001
Neurospheres were dissected from E12.5 CNS telencephalic lobes and cultured in neurobasal medium supplemented with B27 and N2, as described previously (Dasgupta, B. and Gutmann, D. H., J. Neurosci. 25, 5584-5594, 2005). […] At each time point, resulting neurospheres were trypsinized and counted on a hemocytometer. For self-renewal assays, single neurospheres were picked up by pipette and neurosphere diameter was measured individually under microscope. Ten similar-sized neurospheres of each genotype were triturated individually before plating, and the number of resulting secondary neurospheres generated per primary neurosphere was counted after 6 days. Neurosphere diameters were measured using Metamorph software. […] Briefly, NPCs were pulse labeled with […] CFSE at 37° C. for 15 min, washed, and one-half of the cells were analyzed by FACS, while the other half was analyzed after 4 days of growth. […]

Rb-E2F1 = test: Immunoprecipitation with Rb antibody and Western blot with E2F1 antibody from NPCs; assay type: cell-based, mouse; parameters: dose or concentration left out as unconfirmed; conditions: NPCs grown in indicated glucose concentration
Procedure: FIG. 56. This figure illustrates that energy restriction and growth factor signaling utilize the AMPK-Rb axis to enhance NPC proliferation. (A) Immunoprecipitation assay using Rb antibody and Western blot with E2F1 antibody from NPCs grown in the indicated glucose concentration in the absence or presence of CC ([…]). (B) Immunohistochemistry of saggital sections of E14.5 wildtype and β1−/− body using pHistoneH3 antibody (red).
(§1) Cultured NPCs or MEFs were lysed with MAPK lysis buffer (20 mM Tris-HCL, pH 7.5, 150 mM, NaCl, 1 mM EGTA, 1 mM EDTA, 1% TritonX-100, 2.5 mM sodium pyrophosphate, 1 mM β-glycerophosphate, 1 mM sodium vanadate, 1 mM PMSF, 1 mM DTT and protease inhibitor cocktail). […] The immunoprecipitated proteins were analyzed by standard immunoblot analysis. […]
AMPK is integrally involved in regulating cellular energy homeostasis and is activated by low cellular ATP levels, such as occurs by limiting oxygen or glucose supplies or exercise, conditions that enhance proliferative capacity of stem cells (Burgers et al., Exp. Brain Res. 188, 33-43, 2008; Fu et al., Diabetologia 49, 1027-1038, 2006; Stolzing et al., Rejuvenation Res. 9, 31-35, 2006). To explore whether the proliferative effects of glucose restriction are manifested through activation of the AMPK-Rb axis, we monitored the growth of WT NPCs cultured in 2.5-25 mM (the amount present in neurobasal medium) glucose for 48 hr. […]

AMPK = test: Immunoblot of pAMPK and pRb in WT NPCs after growth factor (EGF and FGF) withdrawal and re-administration; assay type: cell-based, mouse; conditions: growth factors withdrawn 2 h, re-administered 1 h in presence of compound C (CC; 5 mM per FIG. 54 legend)
Text: FIG. 54. This figure illustrates that energy restriction and growth factor signaling utilize the AMPK-Rb axis to enhance NPC proliferation. […] (B and C) Proliferation assay of WT NPCs (B) and β1−/−NPCs (C) cultured for 48 hr under glucose-limiting conditions (Cont=25 Mm glucose, which is the amount in neurobasal medium). Data are representative of three independent experiments (#p=0.07; *p % 0.005). Error bars indicate SD. (D and E) Densitometric analysis using phospho-specific AMPKα^Thr172, Rb^Ser800/804, ACC^Ser79, and pan AMPKα, Rb, and ACC antibodies. AU, arbitrary units.
as §1, with “cocktail). AMPK was immunoprecipitated with AMPKα1/2 antibody (Cell Signaling Technology), Rb was immunoprecipitated with Rb antibody (Santa Cruz Biotechnology, Santa Cruz, Calif.) and cyclinD1/D2 (associated with CDK4/6) was immunoprecipitated with CyclinD1 and CyclinD2 antibodies (Cell Signaling Technology).” for “cocktail).”

AMPK holoenzyme = test: Nonradioactive in vitro kinase assay: immunoprecipitated AMPK holoenzyme phosphorylating recombinant Rb fusion protein (residues 701-928); assay type: biochemical, mouse; conditions: AMPK immunoprecipitated from WT NPCs, phospho-Rb800/804 immunoblot
Procedure: Nonradioactive in vitro kinase assay was performed as previously described (Lee et al., Nature 447, 1017-1020, 2007), with minor modifications. Briefly, WT NPCs were lysed with MAPK buffer, and AMPK was immunoprecipitated from WT NPCs with AMPKα1/2 antibody, washed with a buffer containing 10 mM Tris-Hcl (pH 7.5) and 0.5 M LiCl, and suspended in kinase buffer containing 0.5 mM ATP. CyclinD1/D2 (associated with CDK4/6) was immunoprecipitated with cyclinD1 and cyclinD2 antibodies. Reactions were carried out at 30° C. for 1 hr by adding RB-C fusion protein (residues 701-928; Cell Signaling Technology, Beverly, Mass.) to the reaction mix. Reaction was terminated by adding 6× Laemmli buffer and boiling for 5 min. Samples were resolved in 10% SDS-PAGE, and Western blot analysis was performed with phospho-RbSer^800/804 (Ser^807/811 in human) antibody (Cell Signaling Technology).
The CDK-cyclin D complex is known to phosphorylate Rb at Ser804. […] CDK4/6, which exist in complexes with cyclinD1/D2, were immunoprecipitated using cyclin D1/2 antibodies, and the activity was measured by nonradioactive in vitro kinase assays using bacterially produced Rb fusion protein (residues 701-928) as the substrate. […] In these experiments, phosphorylation was monitored by immunoblot using phosphor-Rb800/804 antibody. […]

WT NPCs = test: Proliferation assay of WT NPCs cultured 48 hr under glucose-limiting conditions; assay type: cell-based, mouse; conditions: 2.5-25 mM glucose
Procedure: FIG. 54. This figure illustrates that energy restriction and growth factor signaling utilize the AMPK-Rb axis to enhance NPC proliferation. (A) Densitometric analysis of WT NPCs using indicated antibodies after 2-hr growth factor stimulation in the presence or absence of AMPK inhibitor compound C (CC; […]). (B and C) Proliferation assay of WT NPCs (B) and β1−/−NPCs (C) cultured for 48 hr under glucose-limiting conditions (Cont=25 Mm glucose, which is the amount in neurobasal medium). Data are representative of three independent experiments (#p=0.07; *p % 0.005). Error bars indicate SD. […]
Neurospheres were dissected from E12.5 CNS telencephalic lobes and cultured in neurobasal medium supplemented with B27 and N2, as described previously (Dasgupta, B. and Gutmann, D. H., J. Neurosci. 25, 5584-5594, 2005). […] At each time point, resulting neurospheres were trypsinized and counted on a hemocytometer. For self-renewal assays, single neurospheres were picked up by pipette and neurosphere diameter was measured individually under microscope. Ten similar-sized neurospheres of each genotype were triturated individually before plating, and the number of resulting secondary neurospheres generated per primary neurosphere was counted after 6 days. Neurosphere diameters were measured using Metamorph software. […]

Row | Compound | proliferation of NPCs (live cell count) ([1]; 1 mM) | Rb sequestration of E2F1 (Rb-bound E2F1) (Rb-E2F1) | increase in phosphoAMPK (pAMPK Thr172) on EGF and FGF re-administration (AMPK) | increase in phosphoRb (Ser800/804) on EGF and FGF re-administration (AMPK) | AMPK phosphorylation of Rb at Ser804 (AMPK holoenzyme) | proliferation of NPCs (live cell count) ([1]; 10 μM) | NPC growth stimulation by low glucose (WT NPCs) | neurosphere growth (WT NPCs)
1 | Nc1ncnc2c1ncn2[C@@H]1O[C@H](CO)[C@@H](O)[C@@H]1O [Ara A, Adenine 9-β-D-arabinofuranoside] | drastically reduces proliferation |  |  |  |  |  |  | 
2 | c1cc(-c2cnn3cc(-c4ccc(OCCN5CCCCC5)cc4)cnc23)ccn1 [Compound C, 6-[4-(2-piperidin-1-ylethoxy)-phenyl]-3-pyridin-4-ylpyrazolo[1,5-α]pyrimidine] |  | higher levels | no increase | no increase | could be inhibited | drastically reduces proliferation | not observed | severely inhibited
